Read-outs that look alike come from different tables or passages of the source. Marks after values point to notes of the source that are not given here.
How the values were obtained:
Caco-2 cell homogenates [1] = conditions: cited from earlier work
AsPC-1 cell homogenates [2] = conditions: cited from earlier work
Caco-2 cell homogenates [3] = experiment: Enzymatic stability in Caco-2 cell homogenates; format: in vitro ADME; conditions: 500 µg/mL protein, 37 °C
Method: (§1) Confluent Caco-2, Panc-1, and AsPC-1cells were rinsed twice with phosphate buffered saline (PBS). The cells were lysed with phosphate buffer (pH 7.4) by ultrasonication (Micro ultrasonic cell disrupter Model KT40, Kontes, Vineland, NJ, USA), and pelleted by centrifugation for 5 min at 1,000 × g. Protein amount was quantified with the Bio-Rad (Hercules, CA, USA) DC Protein Assay using bovine serum albumin as a standard. The amount of protein was adjusted to 500 µg/mL and hydrolysis reactions were carried out in 96-well plates (Corning). […] The filtrate was then analyzed via reverse-phase HPLC.
(§2) The stability samples of prodrugs and their metabolites, and perfusion samples were determined on an Agilent HPLC system (Agilent Technologies, Santa Clara, CA, USA). […] Standard curves generated for each prodrug and their parent drug were utilized for quantitation of integrated area under peaks. […]
(§3) The experiments concerning drug and their prodrug stability were performed at 37 °C in 0.01 N HCl, SIF (pH 6.0), and pH 7.4 phosphate buffer. […] Prodrug metabolites such as floxuridine, 5-fluorouracil (5-FU), gemcitabine, 2′-deoxy-2′,2′-difluorouridine, uracil, and cytosine were monitored along with prodrug disappearance in this experiment.

Panc-1 cell homogenates = experiment: Enzymatic stability in Panc-1 cell homogenates; format: in vitro ADME; conditions: 500 µg/mL protein, 37 °C
Method: Confluent Caco-2, Panc-1, and AsPC-1cells were rinsed twice with phosphate buffered saline (PBS). The cells were lysed with phosphate buffer (pH 7.4) by ultrasonication (Micro ultrasonic cell disrupter Model KT40, Kontes, Vineland, NJ, USA), and pelleted by centrifugation for 5 min at 1,000 × g. Protein amount was quantified with the Bio-Rad (Hercules, CA, USA) DC Protein Assay using bovine serum albumin as a standard. The amount of protein was adjusted to 500 µg/mL and hydrolysis reactions were carried out in 96-well plates (Corning). Caco-2, Panc-1, and AsPC-1 cell suspensions (250 µL) were placed in triplicate wells, the reactions were started with the addition of substrate, and cells were incubated at 37 °C for 120 min. At the desired time point, sample aliquots (35 µL) were removed and added to acetonitrile (ACN, 150 µL) with 0.1% TFA. The mixtures were filtered with a 0.45 µm filters at 1,000 × g for 10 min at 4 °C. The filtrate was then analyzed via reverse-phase HPLC.
The stability samples of prodrugs and their metabolites, and perfusion samples were determined on an Agilent HPLC system (Agilent Technologies, Santa Clara, CA, USA). The HPLC system consisted of Agilent pumps (1100 series), an Agilent autosampler (1200 series), and an Agilent UV-Vis detector (1100 series) controlled by Chemstation® 32 software (version B.01.03). Samples were resolved in an Agilent Eclipse Plus C18 reverse-phase column (3.5 µm, 4.6 × 75 mm) equipped with a guard column. The mobile phase consisted of 0.1% TFA/water (Solvent A) and 0.1% TFA/acetonitrile (Solvent B) with the solvent B gradient changing from 0%–56% at a rate of […] during a 15 min run for gemcitabine and gemcitabine prodrugs. Standard curves generated for each prodrug and their parent drug were utilized for quantitation of integrated area under peaks. The detection wavelength was 254 nm and spectra were acquired in the 220–380 nm wavelength range. The detection wavelength for phenol red was 430 nm.
as §3

AsPC-1 cell homogenates [4] = experiment: Enzymatic stability in AsPC-1 cell homogenates; format: in vitro ADME; conditions: 500 µg/mL protein, 37 °C
Method: as §1, §2, §3

[5] = test system: Caco-2, Panc-1, and AsPC-1 cell homogenates; experiment: Enzymatic stability compared across Caco-2, Panc-1 and AsPC-1 cell homogenates; format: in vitro ADME
Method: as §1
The experiments concerning drug and their prodrug stability were performed at 37 °C in 0.01 N HCl, SIF (pH 6.0), and pH 7.4 phosphate buffer. […] Prodrug metabolites such as floxuridine, 5-fluorouracil (5-FU), gemcitabine, 2′-deoxy-2′,2′-difluorouridine, uracil, and cytosine were monitored along with prodrug disappearance in this experiment. However, the mass balance could not be established because 5-FU, cytosine and uracil were metabolized even further and those metabolites could not be quantified by HPLC [11, 50]. The specific kinetic parameters in drug/prodrug metabolism could not be determined without the mass balance and the data of enzymatic activities and their expression levels because those metabolic activities were simultaneously taken place. […]

AsPC-1 cells = test system: AsPC-1 cells; design: method as in PMID 18652477; conditions: cited from earlier work
[6] = Enzymatic stability in Caco-2 cell homogenates; format: in vitro ADME; conditions: human, Caco-2, pH 7.4; 500 µg/mL protein, 37 °C; read-out: Caco-2 cell homogenates t1/2
Method: as §1, §2, §3

[7] = Enzymatic stability in AsPC-1 cell homogenates; format: in vitro ADME; conditions: human, AsPC-1 cell homogenates, pH 7.4; 500 µg/mL protein, 37 °C; read-out: AsPC-1 cell homogenates t1/2
Method: as §1, §2, §3

| Compound | Caco-2 cell homogenates t1/2 (Caco-2 cell homogenates [1]) | AsPC-1 cell homogenates t1/2 (AsPC-1 cell homogenates [2]) | degradation in AsPC-1 cells compared with Caco-2 and Panc-1 cells [5] | other results |
| --- | --- | --- | --- | --- |
| NC(Cc1ccccc1)C(=O)NC(Cc1ccc(O)cc1)C(=O)OCC1OC(n2cc(F)c(=O)[nH]c2=O)CC1O [5′-L-Phenylalanyl-L-tyrosyl-floxuridine] | 103.8 ± 55.5 ^b min | 59.7 ± 1.4 ^b min |  |  |
| 2′,2′-difluoro-2′-deoxyuridine [Gemcitabine] |  |  | three- to four- times faster | Caco-2 cell homogenates t1/2 (Caco-2 cell homogenates [3]): 105.0 ± 6.1 min; Panc-1 cell homogenates t1/2 (Panc-1 cell homogenates): >120 min; AsPC-1 cell homogenates t1/2 (AsPC-1 cell homogenates [4]): 33.7 ± 14.5 min |
| O=c1[nH]c(=O)n([C@H]2C[C@H](O)[C@@H](CO)O2)cc1F [Floxuridine, 5-fluoro-2′-deoxyuridine] | 14.3 ± 7.0 ^a min | 6.4 ± 3.2 ^a min | two- to six-times faster | GI50 (AsPC-1 cells): 22.9 ± 5.7 mM |
| Nc1ccn(C2OC(COC(=O)C(Cc3ccc(O)cc3)NC(=O)C(N)Cc3ccccc3)C(O)C2(F)F)c(=O)n1 [5′-L-Phenylalanyl-L-tyrosyl-gemcitabine] |  |  |  | half-life [6]: 14.7 ± 4.4 min; half-life [7]: 8.1 ± 0.6 min |
